A short description of series [1]: SRB cytotoxicity assay, NIH 3T3. The class given is cell-based, murine. The note with it: mouse, NIH 3T3 non-malignant fibroblasts, Table 2, 72 h of treatment, cut-off 30 μM. As for the experimental part:
(§1) Sulforhodamine (SRB) assays were performed to evaluate the cytotoxicity of the compounds. First, the cytotoxicity of the different rhodamines was determined; the results of these assays are compiled in Table 1 and Table 2 and depicted in Figure 1.
(§2) Experimental equipment: as previously described biological assays were performed as previously reported employing cell lines obtained from the Department of Oncology [Martin-Luther-University Halle Wittenberg; they were bought from ATCC [2, 4, 7]]. Rhodamine 101 B, as well as asiatic acid, were obtained from local vendors and used as received.
(§3) For the SRB assay and staining experiments: as previously described.
For orientation: Sulforhodamine B stains cellular protein and so reports cell mass.

Series [2] concerns A2780 (ovarian carcinoma). Put plainly: SRB cytotoxicity assay, A2780. The note with it: Homo sapiens, A2780; Table 2; SRB assay, 72 h of treatment; cut-off 30 μM; read-out: Cytotoxicity (EC50) A2780. The class given is cell-based, human. As to the method:
as §1, §2, §3

For series [3], the system named is HeLa (cervical adenocarcinoma). Briefly: SRB cytotoxicity assay, HeLa. The class given is cell-based, human. Conditions: Homo sapiens, HeLa; Table 2; SRB assay, 72 h of treatment; cut-off 30 μM; read-out: Cytotoxicity (EC50) HeLa. As to the method: as §1, §2, §3
Series [4] has as its system A375 (melanoma). Put plainly: SRB cytotoxicity assay, A375. The class given is cell-based, human. Conditions: Homo sapiens, A-375; Table 2; SRB assay, 72 h of treatment; cut-off 30 μM; read-out: Cytotoxicity (EC50) A375. As to the method:
as §1, §2, §3

For series [5], the system named is HT29 (colorectal carcinoma). Briefly: SRB cytotoxicity assay, HT29. The note with it: Homo sapiens, HT-29; Table 2; SRB assay, 72 h of treatment; cut-off 30 μM; read-out: Cytotoxicity (EC50) HT29. The class given is cell-based, human. As to the method: as §1, §2, §3
Series [6] relates to MCF7 (breast adenocarcinoma). Put plainly: SRB cytotoxicity assay, MCF7. The class given is cell-based, human. The note with it: Homo sapiens, MCF7; Table 2; SRB assay, 72 h of treatment; cut-off 30 μM; read-out: Cytotoxicity (EC50) MCF7. As for the experimental part:
as §1, §2, §3

Counter-ions that a name gives are not always drawn.

One may read the melting point as the temperature, or range, at which the solid turns liquid. In turn, `CC(=O)OC[C@@]1(C)C2CC[C@]3(C)[C@H](CC=C4[C@@H]5[C@@H](C)[C@H](C)CC[C@]5(C(=O)N5CCN(C(=O)c6ccccc6-c6c7ccc(=[N+](C)C)cc-7oc7cc(N(C)C)ccc67)CC5)CC[C@]43C)[C@@]2(C)C[C@@H](OC(C)=O)[C@@H]1OC(C)=O` (stereo partly drawn) (as salt: chloride) [compound 6, (2α,3β,4α)-9-[2-{[4-(2,3,23-Tris(acetyloxy)-urs-12-en-28-oyl)-Piperazinyl]Carbonyl}Phenyl]-3,6-bis(Dimethylamino)-Xanthylium Chloride] showed a melting point of 248 to 250 °C.
On the same count and under the same terms, as for `CCCN(CCC)c1ccc2c(-c3ccccc3C(=O)N3CCN(C(=O)[C@]45CC[C@@H](C)[C@H](C)[C@H]4C4=CC[C@@H]6[C@@]7(C)C[C@@H](OC(C)=O)[C@H](OC(C)=O)[C@@](C)(COC(C)=O)C7CC[C@@]6(C)[C@]4(C)CC5)CC3)c3ccc(=[N+](CCC)CCC)cc-3oc2c1` (stereo partly drawn) (as salt: chloride) [compound 8, (2α,3β,4α)-9-[2-{[4-(2,3,23-Tris(Acetyloxy)-urs-12-en-28-oyl)-Piperazinyl]Carbonyl}Phenyl]-3,6-Bis(Dipropylamino)-Xanthylium Chloride], the figure is 226 to 228 °C.
`CCCCN(CCCC)c1ccc2c(-c3ccccc3C(=O)N3CCN(C(=O)[C@]45CC[C@@H](C)[C@H](C)[C@H]4C4=CC[C@@H]6[C@@]7(C)C[C@@H](OC(C)=O)[C@H](OC(C)=O)[C@@](C)(COC(C)=O)C7CC[C@@]6(C)[C@]4(C)CC5)CC3)c3ccc(=[N+](CCCC)CCCC)cc-3oc2c1` (stereo partly drawn) (as salt: chloride) [compound 9, (2α,3β,4α)-9-[2-{[4-(2,3,23-Tris(Acetyloxy)-urs-12-en-28-oyl)-Piperazinyl]Carbonyl}Phenyl]-3,6-Bis(Dibutylamino)-Xanthylium Chloride]: the melting point lay within 222 to 226 °C.
On the same count and under the same terms, as for `CC(=O)OC[C@@]1(C)C2CC[C@]3(C)[C@H](CC=C4[C@@H]5[C@@H](C)[C@H](C)CC[C@]5(C(=O)N5CCN(C(=O)c6ccccc6C6=c7cc8c9c(c7Oc7c6cc6c%10c7CCCN%10CCC6)CCC[N+]=9CCC8)CC5)CC[C@]43C)[C@@]2(C)C[C@@H](OC(C)=O)[C@@H]1OC(C)=O` (some centres unmarked) (as salt: chloride) [compound 10], the figure is 244 to 247 °C.
On the same count and under the same terms, as for `CC(=O)OC[C@@]1(C)C2CC[C@]3(C)[C@H](CC=C4[C@@H]5[C@@H](C)[C@H](C)CC[C@]5(C(=O)N5CCCN(C(=O)c6ccccc6-c6c7ccc(=[N+](C)C)cc-7oc7cc(N(C)C)ccc67)CC5)CC[C@]43C)[C@@]2(C)C[C@@H](OC(C)=O)[C@@H]1OC(C)=O` (stereo partly drawn) (as salt: chloride) [compound 11, (2α,3β,4α)-9-[2-{[4-(2α,3β,23-Tris(Acetyloxy)-urs-12-en-28-oyl)-Homopiperazinyl]Carbonyl}Phenyl]-3,6-Bis(Dimethylamino)-Xanthylium Chloride], the figure is 258 to 260 °C.
Still for that read-out and setting: then `CCCN(CCC)c1ccc2c(-c3ccccc3C(=O)N3CCCN(C(=O)[C@]45CC[C@@H](C)[C@H](C)[C@H]4C4=CC[C@@H]6[C@@]7(C)C[C@@H](OC(C)=O)[C@H](OC(C)=O)[C@@](C)(COC(C)=O)C7CC[C@@]6(C)[C@]4(C)CC5)CC3)c3ccc(=[N+](CCC)CCC)cc-3oc2c1` (stereo partly drawn) (as salt: chloride) [compound 13, (2α,3β,4α)-9-[2-{[4-(2α,3β,23-Tris(Acetyloxy)-urs-12-en-28-oyl)-Homopiperazinyl]Carbonyl}Phenyl]-3,6-Bis(Dipropylamino)-Xanthylium Chloride], with 224 to 225 °C; and `CCCCN(CCCC)c1ccc2c(-c3ccccc3C(=O)N3CCCN(C(=O)[C@]45CC[C@@H](C)[C@H](C)[C@H]4C4=CC[C@@H]6[C@@]7(C)C[C@@H](OC(C)=O)[C@H](OC(C)=O)[C@@](C)(COC(C)=O)C7CC[C@@]6(C)[C@]4(C)CC5)CC3)c3ccc(=[N+](CCCC)CCCC)cc-3oc2c1` (stereo partly drawn) (as salt: chloride) [compound 14, (2α,3β,4α)-9-[2-{[4-(2α,3β,23-Tris(Acetyloxy)-urs-12-en-28-oyl)-Homopiperazinyl]Carbonyl}Phenyl]-3,6-Bis(Dibutylamino)-Xanthylium Chloride], with 210 to 213 °C; and `CC(=O)OC[C@@]1(C)C2CC[C@]3(C)[C@H](CC=C4[C@@H]5[C@@H](C)[C@H](C)CC[C@]5(C(=O)N5CCCN(C(=O)c6ccccc6C6=c7cc8c9c(c7Oc7c6cc6c%10c7CCCN%10CCC6)CCC[N+]=9CCC8)CC5)CC[C@]43C)[C@@]2(C)C[C@@H](OC(C)=O)[C@@H]1OC(C)=O` (some centres unmarked) (as salt: chloride) [compound 15], with 287 to 289 °C.
The term EC50 denotes the midpoint of the concentration-response curve. In series [1], `CCCCN(CCCC)c1ccc2c(-c3ccccc3C(=O)N3CCCN(C(=O)[C@]45CC[C@@H](C)[C@H](C)[C@H]4C4=CC[C@@H]6[C@@]7(C)C[C@@H](OC(C)=O)[C@H](OC(C)=O)[C@@](C)(COC(C)=O)C7CC[C@@]6(C)[C@]4(C)CC5)CC3)c3ccc(=[N+](CCCC)CCCC)cc-3oc2c1` (stereo partly drawn) [compound 14, (2α,3β,4α)-9-[2-{[4-(2α,3β,23-Tris(Acetyloxy)-urs-12-en-28-oyl)-Homopiperazinyl]Carbonyl}Phenyl]-3,6-Bis(Dibutylamino)-Xanthylium Chloride] registered an EC50 at 72 h of 200 ± 100 nM. The EC50 in series [2] was determined as 4.5 ± 0.4 nM; in series [3] it was 150 ± 50 nM; in series [4] it was 14 ± 1 nM; in series [5], 25 ± 5 nM; in series [6], 49 ± 6 nM.
Turning to `CC(=O)OC[C@@]1(C)C2CC[C@]3(C)[C@H](CC=C4[C@@H]5[C@@H](C)[C@H](C)CC[C@]5(C(=O)N5CCCN(C(=O)c6ccccc6C6=c7cc8c9c(c7Oc7c6cc6c%10c7CCCN%10CCC6)CCC[N+]=9CCC8)CC5)CC[C@]43C)[C@@]2(C)C[C@@H](OC(C)=O)[C@@H]1OC(C)=O` (some centres unmarked) [compound 15], the EC50 at 72 h in series [1] was determined as 140 ± 50 nM. The EC50 in series [2] was 3.1 ± 0.5 nM; in series [3], 80 ± 30 nM; in series [4], 8 ± 1 nM; in series [5] it was 10 ± 6 nM; in series [6], 19 ± 6 nM.
For `CC(=O)OC[C@@]1(C)C2CC[C@]3(C)[C@H](CC=C4[C@@H]5[C@@H](C)[C@H](C)CC[C@]5(C(=O)N5CCCN(C(=O)c6ccccc6-c6c7ccc(=[N+](C)C)cc-7oc7cc(N(C)C)ccc67)CCC5)CC[C@]43C)[C@@]2(C)C[C@@H](OC(C)=O)[C@@H]1OC(C)=O` (stereo partly drawn) [compound 16, (2α,3β,4α)-9-[2-[{4-(2α,3β,23-Tris(Acetyloxy)-urs-12-en-28-oyl)-1,5-Diazocan-1-Yl]Carbonyl}Phenyl]-3,6-Bis(Dimethylamino)-Xanthylium Chloride], in series [1], the midpoint of the response, the EC50 at 72 h, lay at 400 ± 90 nM. Also, the EC50 amounted to 6 ± 1 nM in series [2]; 500 ± 200 nM in series [3]; 70 ± 10 nM in series [4]; 50 ± 20 nM in series [5]; 50 ± 10 nM in series [6].
`CCN(CC)c1ccc2c(-c3ccccc3C(=O)N3CCCN(C(=O)[C@]45CC[C@@H](C)[C@H](C)[C@H]4C4=CC[C@@H]6[C@@]7(C)C[C@@H](OC(C)=O)[C@H](OC(C)=O)[C@@](C)(COC(C)=O)C7CC[C@@]6(C)[C@]4(C)CC5)CCC3)c3ccc(=[N+](CC)CC)cc-3oc2c1` (stereo partly drawn) [compound 17, (2α,3β,4α)-9-[2-[{4-(2α,3β,23-Tris(Acetyloxy)-urs-12-en-28-oyl)-1,5-Diazocan-1-Yl]Carbonyl}Phenyl]-3,6-Bis(Diethylamino)-Xanthylium Chloride] had an EC50 at 72 h in series [1] of 450 ± 20 nM. The EC50 in series [2] came out at 7 ± 2 nM; in series [3] it was 60 ± 10 nM; in series [4] it was 30 ± 10 nM; in series [5], 30 ± 10 nM; in series [6], 25 ± 20 nM.
Compound `CCCN(CCC)c1ccc2c(-c3ccccc3C(=O)N3CCCN(C(=O)[C@]45CC[C@@H](C)[C@H](C)[C@H]4C4=CC[C@@H]6[C@@]7(C)C[C@@H](OC(C)=O)[C@H](OC(C)=O)[C@@](C)(COC(C)=O)C7CC[C@@]6(C)[C@]4(C)CC5)CCC3)c3ccc(=[N+](CCC)CCC)cc-3oc2c1` (stereo partly drawn) [compound 18, (2α,3β,4α)-9-[2-[{4-(2α,3β,23-Tris(Acetyloxy)-urs-12-en-28-oyl)-1,5-Diazocan-1-Yl]Carbonyl}Phenyl]-3,6-Bis(Dipropylamino)-Xanthylium Chloride] returned an EC50 at 72 h in series [1] of 360 ± 50 nM. Besides, the EC50 in series [2] is 1.9 ± 0.2 nM; in series [3], 70 ± 20 nM; in series [4] it was 7.4 ± 0.9 nM; in series [5] it was 12 ± 4 nM; in series [6], 17 ± 2 nM.
As for `CCCCN(CCCC)c1ccc2c(-c3ccccc3C(=O)N3CCCN(C(=O)[C@]45CC[C@@H](C)[C@H](C)[C@H]4C4=CC[C@@H]6[C@@]7(C)C[C@@H](OC(C)=O)[C@H](OC(C)=O)[C@@](C)(COC(C)=O)C7CC[C@@]6(C)[C@]4(C)CC5)CCC3)c3ccc(=[N+](CCCC)CCCC)cc-3oc2c1` (stereo partly drawn) [compound 19, (2α,3β,4α)-9-[2-[{4-(2α,3β,23-Tris(Acetyloxy)-urs-12-en-28-oyl)-1,5-Diazocan-1-Yl]Carbonyl}Phenyl]-3,6-Bis(Dibutylamino)-Xanthylium Chloride], the EC50 at 72 h in series [1] was found to be 240 ± 80 nM. For the same compound, the EC50 is 6 ± 2 nM in series [2]; 170 ± 80 nM in series [3]; 30 ± 10 nM in series [4]; 30 ± 10 nM in series [5]; 40 ± 5 nM in series [6].

The values above are taken from paper PMC10489938, “Developing an Amide-Spacered Triterpenoid Rhodamine Hybrid of Nano-Molar Cytotoxicity Combined with Excellent Tumor Cell/Non-Tumor Cell Selectivity” (Molecules, 2023).
